Where two headings read alike, the source gives them in different places.
Tests used:
[1] = tested on: mouse model of ischemic stroke; assay: Neurological function tests after tMCAO; assay type: in vivo; conditions: 5.0 mg/kg
Method: The scores were: 0, no observable deficit; 1, forelimb flexion; 2, forelimb flexion and decreased resistance to lateral push; 3, forelimb flexion, decreased resistance to lateral push, and unilateral circling; 4, forelimb flexion and partial or complete lack of ambulation.
In brief, the corner test apparatus consists of two cardboards (30×20×1 cm each) placed together at a 30° angle to form a narrow alley. The mouse was placed between the two angled boards facing the corner. When exiting the corner, uninjured mice turned left or right randomly. […] The numbers of left and right turns of each mouse during 10 trials were recorded, and turning movements that were not part of a rearing movement were not scored. Preoperative training was carried twice per day for three days prior to operation. Postoperatively, animals were tested on day 1, 3, 5, and 7.
In brief, two small pieces of adhesive tape (4 mm×3 mm) were attached to the forepaws in an alternating sequence and with equal pressure by the experimenter before each trial. Animals were released into a testing cage, and the time of contact and removal of the adhesive patch were recorded. Contact was recorded when either shaking of the paw or mouth contact occurred. The trial ended after the adhesive patch was removed or after 2 min had elapsed. Preoperative training was carried twice per day for three days prior to operation. Postoperatively, animals were tested on day 1, 3, 5, and 7.
Referring to FIG. 13, neurological deficit scores, corner tests, and adhesive tape contact and adhesive tape removal tests of mice treated with vehicle or ZT-1a 1 day before tMCAO (˜1) and at days 0, 1, 3, 5, and 7 post-tMCAO are shown. Vehicle (DMSO, 2 ml/kg) or ZT-1a (5.0 mg/kg) were administered as described in B. Data are means±SEM, n=6 for each group (male 3, female 3). * p<0.05 vs. vehicle.

[2] = design: species or system ICR mice; conditions: ICR, mouse, in vivo
Method: Referring to Table 3, ZT-1a pharmacokinetics were determined following a single 5 mg/kg intravenous (IV) dose and a single 10 mg/kg oral (PO) dose in ICR mice (N=3 at each time point). Blood samples were collected at 0.08, 0.25, 0.5, 1, 2, 4, 8, 10 & 24 hr (IV) & 0.25, 0.5, 1, 2, 4, 8, 10 & 24 hr (PO) post dose. Samples were subjected to drug assay by LC-MS/MS, and data were analyzed by WinNonlin V6.3. Tmax=time of maximum plasma concentration, Cmax=maximum plasma concentration, AUC=area under the curve (measure of exposure), T1/2=half life, CL=plasma clearance, Vz=volume of distribution, MRT, mean residence time; F=oral bioavailability.

[3] = ZT-1a content in brain and plasma, sham vs tMCAO mice, LC-MS/MS; assay type: in vivo, mouse; conditions: 2 hrs post-injection
Method: ZT-1a content in brain homogenates and plasma was assayed at the University of Pittsburgh Small Molecule Biomarker Core, using liquid chromatography-tandem mass spectrometry (LC-MS/MS). C57BL/6j mice (normotensive male, 11 weeks old) at 3 hr post Sham surgery or tMCAO were intraperitoneally injected with 5 mg/kg ZT-1a. At 2 hr post injection, blood was collected into heparin-treated EP tubes by a cardiac puncture. After a brief cardiac perfusion with ice-cold normal saline, brain tissues (contralateral and ipsilateral hemispheres) were collected. Plasma samples were prepared by centrifugation of whole blood for 10 min at 1,500 g using a refrigerated centrifuge. Brain tissues and plasma samples were diluted, and protein was precipitated with acetonitrile prior to detection of ZT-1a with a triple quad mass spectrometer. Glyburide was used as the internal standard. Samples were then injected by autosampler and ZT-1a was eluted from a Waters Acquity UPLC BEH C18, 1.7 um, 2.1×100 mm reversed-phase column with a water (with 0.1% formic acid) and acetonitrile (with 0.1% formic acid) gradient.

SPAK-WNK1 interaction = molecular target: T1, SPAK-WNK1 interaction (Homo sapiens, UniProt Q9UEW8); assay: Co-immunoprecipitation of WNK1 with SPAK from HEK293 cell lysates; assay type: binding; conditions: 30 min on ice
T1 construct: Non-transfected HEK293 cell lysates; endogenous in cells; host or cells: HEK293 (non-transfected) lysate
From the text: Referring to FIG. 6, evidence that SPAK associates with WNK1, and interaction is disrupted by SPAK CCT mutation is shown. […] Immunoprecipitates were subjected to immunoblot probed with antibody to total WNK1 and antibody to total SPAK.

[4] = tested on: Ang II-mediated hypertensive mice, pdMCAO; assay: Neurological function tests in HTN mice after pdMCAO; assay type: in vivo, mouse; conditions: male HTN mice; 1-14 days post-pdMCAO
Method: Foot fault, cylinder test, and adhesive tape removal tests were used to assess pdMCAO-induced somatosensory and motor deficits in HTN mice in a blinded manner as described previously (Bhuiyan et al. (2017)J Cereb Blood Flow Metab. 37:2780-2794; Begum et al. (2018) Glia. 66).
Cylinder test: Mice are placed in a transparent cylinder (9 cm in diameter and 15 cm in height) for 10 min and all the forelimb movements of the mice will be recorded. Forepaw (left/right/both) usage on initial contact against the cylinder wall after rearing and during lateral exploration will be recorded. Prior to ischemic stroke, animals were placed in the cylinder for 5 min to establish a baseline symmetry profile.
Foot fault test: Each mouse will be placed on a stainless-steel grid floor (20 cm×40 cm with a mesh size of 4 cm^2) elevated 1 m above the floor. […] Data will be expressed as the number of foot fault errors made by the forelimbs contralateral to the injury hemisphere as a percentage of total steps.
Adhesive contact and removal tests: A piece of adhesive tape (4 mm×3 mm) will be attached to the contralateral forepaw with equal pressure by the experimenter in each trial. The time to make first contact with the tape and the time to remove the tape will be recorded as the contact time and the removal time, respectively. […]

**Q.** Which corner test ([1]; days 1-7 post-stroke) does the source give for Cc1cc(C(C#N)c2ccc(Cl)cc2)c(Cl)cc1NC(=O)c1cc(Cl)ccc1O (stereo not shown) [ZT-1a, 5-chloro-N-(5-chloro-4-((4-chlorophenyl)(cyano)methyl)-2-methylphenyl)-2-hydroxy-benzamide] here?
**A.** Its corner test is “reduced unidirectional turn preference and absence of asymmetries by day 7 post-stroke”.

**Q.** And the adhesive removal test ([1]; vs vehicle, p<0.05)?
**A.** The adhesive removal test was “significantly improved motor function”.

**Q.** And the adhesive contact test ([1]; vs vehicle, p=0.10)?
**A.** Its adhesive contact test is “trend to faster contact response”.

**Q.** What about the AUC [2] of the same molecule?
**A.** The AUC was 2340 ng·h/mL.

**Q.** What about the C0 ([2]; iv, 5 mg/kg) of the same molecule?
**A.** The C0 was 14900 ng/mL.

**Q.** What about the Cl ([2]; iv, 5 mg/kg) of the same molecule?
**A.** The Cl was 35.5 mL/min/kg.

**Q.** And the “MRT(0-∞)” value ([2]; iv, 5 mg/kg)?
**A.** Its value is 0.45 h.

**Q.** And the Vz ([2]; iv, 5 mg/kg)?
**A.** Its Vz is 0.948 L/kg.

**Q.** And the “MRT(0-∞)” value ([2]; po, 10 mg/kg)?
**A.** The value was 3.3 h.

**Q.** What about the “brain concentrations, stroke mice vs sham-controls” value ([3]; 5 mg/kg i.p. at 3 hrs after tMCAO, n=10-11) of the same molecule?
**A.** Its value is ~1.8 fold.

**Q.** What about the “plasma bioavailability, sham control vs ischemic stroke mice” value ([3]; 5 mg/kg i.p., p=0.29) of the same molecule?
**A.** Its value is “no significant difference”.

**Q.** What about the “co-immunoprecipitation of WNK1 with SPAK” value (SPAK-WNK1 interaction) of the same molecule?
**A.** The value was “potently abolished”.

**Q.** And the “foot fault, cylinder and adhesive tape removal tests” value [4]?
**A.** The value was “less foot faults, less unilateral turns and better performance in adhesive tape removal”.

— patent publication US11414379B2, “SPAK kinase inhibitors as neuroprotective agents” (United States Government as represented by the Department …, priority 2018, dated 2022)
